Values joined by “and” are separate entries in the source; they are usually repeats but may differ in a detail not shown here. Equal values may be shown once.
Experiment: Tumour dosimetry by SPECT/CT, activity-based and anatomy-based tumour selection and delineation
Assay type: in vivo, human
Conditions: for Tumour absorbed dose lower than Cycle 1 value, on average: anatomy-based
Experimental: Multi-bed single-photon emission computed tomography (SPECT)/CT was conducted at 3-, 24-, 48- and 168-hours post-^177Lu-rhPSMA-10.1 administration in each treatment cycle for the estimation of organ and tumour absorbed doses in each patient. Prior to commencement of the study, each investigating site was required to complete a calibration of their dose calibrator and SPECT/CT system to ensure harmonised quantification of the imaging data. Quantitative reconstructions and all dosimetry analyses were carried out centrally by an independent dosimetry vendor (Radiopharmaceutical Imaging and Dosimetry LLC, Baltimore, MD).
The specific absorbed doses (Gy/GBq) in normal organs and tumours were determined using the Medical Internal Radiation Dose (MIRD) Committee S-value methodology. Individual patient organ masses, determined via CT delineation, were scaled to reflect deviations from reference phantom geometry. Cumulative organ absorbed doses (Gy) were calculated across all treatment cycles. Further details on dosimetry methodology are provided in the supplemental materials and have been reported in accordance with EANM guidance.
Approach one was an activity-based method equivalent to that used in most studies that have evaluated tumour dosimetry with ^177Lu-labelled PSMA RLT [28]. For this method, up to three tumours were selected according to their relative visual uptake on the 168-hour SPECT/CT. Lesion contouring for volume/mass was performed based on a 41% SUVmax threshold on the corresponding PSMA PET/CT. These contours were manually transferred onto the SPECT images, making minor adjustments where necessary to the contour margins accounting for any activity spill out on the SPECT. This is illustrated in Supplemental Figure S1. The second method was anatomy-based, with up to five tumours selected in a blinded fashion on CT according to RECIST v1.1 criteria. Lesion volume and mass were determined via manual contouring on the CT and then directly transferred to the SPECT images. Where a common lesion was selected across both methods, the difference in tumour volume resulting from the two contouring methods was calculated.
For the Cycle 1 tumour dosimetry, 36 lesions (27 bone and 9 lymph nodes) were analysed using the activity-based method, while 51 lesions (39 bone and 12 lymph nodes) were evaluated using the anatomy-based method. […] For each method, the mean tumour dose was determined by averaging the maximum tumour dose across all patients.

SMILES: CC(C)(C)[Si](F)(c1ccc(C(=O)NC[C@@H](NC(=O)CN2CCN(CC(=O)[O-])CCN(CC(=O)[O-])CCN(CC(=O)[O-])CC2)C(=O)N[C@H](CCCCNC(=O)CCC(=O)NCCC[C@@H](NC(=O)CC[C@H](NC(=O)N[C@@H](CCC(=O)O)C(=O)O)C(=O)O)C(=O)O)C(=O)O)cc1)C(C)(C)C.[177Lu+3] [^177Lu-rhPSMA-10.1]
- Tumour absorbed dose lower than Cycle 1 value, on average (Cycle 2, 11 patients with multiple cycles): ~ 37% and 37%
- Tumour absorbed dose lower than Cycle 1 value, on average (Cycle 3): ~ 56% and 56%
- Maximum tumour absorbed dose, range across patients (activity method, Cycle 1): 2.00–25.7 Gy/GBq
- Mean (SD) maximum tumour absorbed dose (activity method, Cycle 1): 8.87 Gy/GBq and 8.87 (6.71) Gy/GBq
- Mean therapeutic index, ratio of tumour-to-kidney absorbed doses (activity method, Cycle 1): 32.1
- Mean tumour-to-salivary gland absorbed dose ratio (activity method, Cycle 1): 73.2
- Maximum tumour absorbed dose, range across patients (anatomy method, Cycle 1): 0.37–6.67 Gy/GBq
- Mean (SD) maximum tumour absorbed dose (anatomy method, Cycle 1): 2.38 (1.78) Gy/GBq and 2.38 Gy/GBq

From publication PMC12491383, “Organ and tumour dosimetry of ^177Lu-rhPSMA-10.1, a novel PSMA-targeted therapy: results from a Phase I trial” (European Journal of Nuclear Medicine and Molecular Imaging, 2025)
